Target: T1, human recombinant Yes [a.a. 2–543 (end)] (Homo sapiens, UniProt P07947)
T1 construct: human recombinant Yes [a.a; 2–543 (end)]; purchased BPS Bioscience 40488
Assay: ADP-Glo kinase assay, inhibition rates of Yes phosphorylation activity (first and second screening)
Format: biochemical
Conditions: 10 μmol L−1 compound; for First screening IR (inhibition rate): mean of n = 4 wells; for Second screening IR (inhibition rate): dissolved from fresh powder, n = 4
Method in brief: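 Hits from a first pass were rescreened after re-dissolution from fresh powder. The first pass reported the mean inhibition rate of quadruplicate wells per compound. Activity was that of recombinant human Yes [a.a. 2–543] kinase, read out with the ADP-Glo ADP-detection method.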

T1 sequence (P07947 2-543): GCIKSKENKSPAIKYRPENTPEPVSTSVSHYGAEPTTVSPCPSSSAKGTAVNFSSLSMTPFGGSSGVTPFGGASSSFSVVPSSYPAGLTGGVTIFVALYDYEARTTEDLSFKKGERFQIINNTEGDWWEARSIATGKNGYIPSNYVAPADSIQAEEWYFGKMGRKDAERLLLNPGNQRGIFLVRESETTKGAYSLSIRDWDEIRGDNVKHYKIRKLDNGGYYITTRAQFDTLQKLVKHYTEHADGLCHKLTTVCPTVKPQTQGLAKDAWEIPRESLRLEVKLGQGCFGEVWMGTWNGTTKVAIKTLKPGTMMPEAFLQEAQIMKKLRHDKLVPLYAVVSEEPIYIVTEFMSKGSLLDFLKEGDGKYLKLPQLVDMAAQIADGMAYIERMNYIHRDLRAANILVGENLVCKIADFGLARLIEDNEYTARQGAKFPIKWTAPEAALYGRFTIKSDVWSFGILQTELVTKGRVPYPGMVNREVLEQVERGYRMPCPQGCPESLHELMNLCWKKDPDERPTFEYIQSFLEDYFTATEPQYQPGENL

| Compound | First screening IR (inhibition rate) [%] | Second screening IR (inhibition rate) [%] |
| --- | --- | --- |
| CCCCCn1c(N)c(C(=O)NCCN2CCOCC2)c2nc3ccccc3nc21 [Compound Z56872965] | 48 |  |
| NS(=O)(=O)c1ccc(Cl)c(S(N)(=O)=O)c1 [Compound Z56877166] | 0 |  |
| CN(C)S(=O)(=O)c1ccc(Cl)c(S(=O)(=O)N(C)C)c1 [Compound Z56877204] | 7 |  |
| CN(C)S(=O)(=O)c1cccc(S(=O)(=O)c2cccc(S(=O)(=O)N(C)C)c2)c1 [Compound Z56877233] | 7 |  |
| CC(c1ccccc1)n1c(NC(=O)c2ccccc2)c(S(=O)(=O)c2ccccc2)c2nc3ccccc3nc21 (stereo not drawn) [Compound Z56877281] | -3 |  |
| NS(=O)(=O)c1cc(S(=O)(=O)c2ccc(Cl)c(S(N)(=O)=O)c2)ccc1Cl [Compound Z56888775] | -18 |  |
| CSc1ncccc1C(=O)OCC(=O)Nc1nc2ccccc2s1 [Compound Z56896575] | -4 |  |
| Cc1c(N=C2SC(CC(=O)Nc3ccc(F)cc3)C(=O)N2CC2CCCCC2)c(=O)n(-c2ccccc2)n1C (stereo not drawn) [Compound Z56900652] | 8 |  |
| Cc1ccc(/C=C/C2=Cc3c(sc(N)c3C#N)C(C)(C)C2)o1 [Compound Z56910454] | 31 | 36 |
| Cl.Nc1ccc(-c2cc(-c3ccccc3)c3cc(Cl)ccc3n2)cc1 [Compound Z56913268] | -5 |  |
| CC(=O)c1cccc(NC(=O)c2sc(Nc3ccc(C)cc3)c(C(=O)NCCN3CCOCC3)c2N)c1 [Compound Z56914008] | -3 |  |
| COc1ccc(NC(=O)c2c(Nc3ccc(OC(F)F)cc3)sc(C(=O)Nc3ccc4c(c3)OCO4)c2N)cc1Cl [Compound Z56918070] | 16 |  |
| Cc1[nH]n(-c2ccccc2)c(=O)c1/C(=N/NC(=O)c1cc(-c2ccccc2)n[nH]1)c1ccccc1 [Compound Z56919929] | 1 |  |
| Cc1ccc(-c2nn3c(=O)c4c5c(sc4nc3c3ccccc23)CC(C(C)(C)C)CC5)cc1 (stereo not drawn) [Compound Z56929220] | -24 |  |
| Nc1ncnc(Nc2ccc(F)cc2)n1 [Compound Z56931701] | -4 |  |
| Nc1ncnc(Nc2ccccc2F)n1 [Compound Z56931704] | 12 |  |
| Nc1ncnc(Nc2cccc(C(F)(F)F)c2)n1 [Compound Z56931708] | 13 |  |
| COc1ccc(Nc2ncnc(N)n2)cc1 [Compound Z56938001] | 14 |  |
| N#Cc1c(NC(=O)COC(=O)c2cn(-c3ccccc3)nc2-c2cccnc2)oc(-c2ccccc2)c1-c1ccccc1 [Compound Z56941227] | -9 |  |
| COc1ccc(CCNC(=O)Cn2c(CN3CCOCC3)nc3sc4c(c3c2=O)CCC(C)C4)cc1 (stereo not drawn) [Compound Z56952971] | -10 |  |
| Cc1ccc(N(C(=O)c2ccc(C(C)(C)C)cc2)C2C=CS(=O)(=O)C2)cc1 (stereo not drawn) [Compound Z56970107] | 4 |  |

| Compound | First screening IR (inhibition rate) [%] | Second screening IR (inhibition rate) [%] |
| --- | --- | --- |
| O=S(=O)(Cl)c1ccc(S(=O)(=O)N2CCCC2)cc1 [Compound Z56979291] | 9 |  |
| CCOc1ccc(-c2nc3ccccc3c(-c3ccccc3)c2Cl)cc1.Cl [Compound Z57038735] | 51 | 2 |
| Cc1cc(C)c(NC(=O)C2CCN(c3ncnc4sc(C)c(C)c34)CC2)c(C)c1 [Compound Z57042877] | 0 |  |
| COc1ccc(Nc2nc(NCCN3CCOCC3)nc(Nc3ccc(OC)cc3)n2)cc1 [Compound Z57049315] | 6 |  |
| O=S1(=O)C=C(Cl)C(Br)C1 (stereo not drawn) [Compound Z57056476] | 1 |  |
| O=S1(=O)CCC(SSC2CCS(=O)(=O)C2)C1 (stereo not drawn) [Compound Z57056477] | 3 |  |
| O=S1(=O)CCC(S(=O)(=O)c2ccccc2)C1 (stereo not drawn) [Compound Z57056479] | 4 |  |
| O=S1(=O)CCC(S(=O)(=O)Cl)C1 (stereo not drawn) [Compound Z57163399] | -7 |  |
| O=S1(=O)CC=C(S(=O)(=O)Cl)C1 [Compound Z57163400] | 4 |  |
| Cc1ccc(C(=O)CC2(O)C(=O)Nc3ccc(Cl)cc32)cc1 (stereo not drawn) [Compound Z57172226] | 2 |  |
| O=c1c2cccc3c2c(nn1-c1ccccc1)-c1ccccc1-3 [Compound Z57229152] | 18 |  |
| O=C(C1=C(O)C(=O)N(CCCn2ccnc2)C1c1ccc(Cl)cc1)c1ccco1 (stereo not drawn) [Compound Z57237929] | 20 |  |
| O=C(C1=C(O)C(=O)N(CCCn2ccnc2)C1c1cccc([N+](=O)[O-])c1)c1ccco1 (stereo not drawn) [Compound Z57237939] | 62 | -11 |
| COCCNC(=O)/C(=C\c1ccc(-c2cccc(Cl)c2)o1)NC(=O)c1ccc(OC)cc1 [Compound Z57239420] | 46 |  |
| O=C(NCCCn1ccnc1)/C(=C/c1ccc(-c2cccc(Cl)c2)o1)NC(=O)c1ccccc1 [Compound Z57239426] | 2 |  |
| O=C1C(=O)N(CCCn2ccnc2)C(c2ccc(F)cc2)/C1=C(\O)c1ccc(Cl)cc1 (stereo not drawn) [Compound Z57239976] | -5 |  |
| Cc1ccnc(Nc2nc3ccccc3s2)n1 [Compound Z57289339] | -13 |  |
| O=S(=O)(Nc1cccc(-c2cn3ccccc3n2)c1)c1ccccc1 [Compound Z57289575] | 41 |  |
| O=C(N/N=C/c1ccco1)c1cc(-c2ccc(Br)s2)[nH]n1 [Compound Z57393573] | -9 |  |
| Clc1ccc2nc(NC3=NCN(CCN4CCOCC4)CN3)nc(-c3ccccc3)c2c1 [Compound Z57440306] | 4 |  |
| Fc1ccc(-n2cc(-c3ccccc3)c3c(N4CCOCC4)ncnc32)cc1 [Compound Z57455467] | 5 |  |

| Compound | First screening IR (inhibition rate) [%] | Second screening IR (inhibition rate) [%] |
| --- | --- | --- |
| COc1ccc(-n2cc(-c3ccccc3)c3c(NCCCO)ncnc32)cc1 [Compound Z57455872] | 1 |  |
| COCCNc1ncnc2c1c(-c1ccccc1)cn2-c1ccc(OC)cc1 [Compound Z57455912] | 16 |  |
| OCCNc1ncnc2c1c(-c1ccccc1)cn2-c1ccc(F)cc1 [Compound Z57455953] | -6 |  |
| COc1ccc(-n2cc(-c3ccccc3)c3c(NCCOCCO)ncnc32)cc1 [Compound Z57456127] | -8 |  |
| CCOc1ccc(-n2cc(-c3ccccc3)c3c(NCCO)ncnc32)cc1 [Compound Z57456164] | 20 |  |
| Cc1ccc(Cn2ncc3c(NN)ncnc32)cc1 [Compound Z57458515] | 9 |  |
| CCS(=O)(=O)Nc1ccc(C2=NN(S(=O)(=O)c3ccc(C)cc3)C(c3ccco3)C2)cc1 (stereo not drawn) [Compound Z57514609] | 23 |  |
| Oc1ccc(F)cc1C1=NNC(c2cc(Br)cc3c2OCOC3)C1 (stereo not drawn) [Compound Z57604399] | -12 |  |
| Cc1cc(=O)n2c3ccccc3n(CC(O)CN3CCN(CCOc4ccc(Cl)cc4)CC3)c2c1C#N (stereo not drawn) [Compound Z57724322] | 7 |  |
| O=C(COc1ccc(-c2cc(-c3ccccc3)c3cc(Cl)ccc3n2)cc1)NCCO [Compound Z57805545] | 39 |  |
| OCCNc1nc2ccccc2n1-c1ncnc2sc3c(c12)CCCC3 [Compound Z57981090] | 7 |  |
| Clc1ccc(Oc2cccc(-c3nc4c5ccccc5c5ccccc5c4[nH]3)c2)cc1 [Compound Z57984419] | 2 |  |
| Cl.N#Cc1c(-c2ccc(Cl)cc2)nc2ccccc2c1-c1ccccc1 [Compound Z57989376] | 2 |  |
| NNc1ncnc2c1cnn2Cc1ccccc1 [Compound Z58286928] | -12 |  |
| C(=C\c1ccccc1)/CN1CCN(c2ncnc3c2cnn3Cc2ccccc2)CC1 [Compound Z58287009] | 0 |  |
| Cc1cccnc1NC(=O)c1ccc(CSc2ccccc2)cc1 [Compound Z58490632] | -1 |  |
| Cc1nn(C2CCS(=O)(=O)C2)c2nc(C3CC3)cc(C(=O)NCc3ccc4c(c3)OCO4)c12 (stereo not drawn) [Compound Z60362928] | 5 |  |
| Cc1nn(C2CCS(=O)(=O)C2)c2nc(C3CC3)cc(C(=O)Nc3ccc(C(N)=O)cc3)c12 (stereo not drawn) [Compound Z60779201] | 17 |  |
| COc1cc(NC(=O)c2ccccc2)c(OC)cc1NC(=O)COc1ccc(-c2nnco2)cc1 [Compound Z62746884] | 46 |  |
| CN(CC(=O)NCc1ccco1)C(=O)/C=C/c1ccc(-n2ccnc2)cc1 [Compound Z62804747] | 2 |  |
| CN(CC(=O)N1CCN(CC(=O)NC(C)(C)C)CC1)c1ncnc2cc(-c3ccc(F)cc3)sc12 [Compound Z64655268] | 6 |  |

From publication PMC5607274, “An iterative compound screening contest method for identifying target protein inhibitors using the tyrosine-protein kinase Yes” (Scientific Reports, 2017)
